Test results as given in US20250376473A1, “PRMTS INHIBITOR AND USE THEREOF” (Cytosinlab Therapeutics Co., Ltd., priority 2022, published 2025).
Read-outs that look alike come from different tables or passages of the source.

How the values were obtained:
HCT116 MTAP WT cells = assay: Proliferation inhibition of HCT116 cells in vitro (CellTiter Glo); type: cell-based; conditions: 6 days, 9 concentrations starting from 30 μM, read-out: Cell proliferation inhibition rate HCT116 MTAP WT IC50 (nm)
Source text: (§1) Biological Test Example 2 Proliferation Inhibition of HCT116 and HCT116 MTAP-KO Cells in Vitro
(§2) HCT116 cell line was purchased from the Chinese Academy of Sciences Cell Bank, and the MTAP gene was knocked out by CRISPR/Cas9 technology to obtain HCT116-MTAP-KO cell line.
(§3) McCoy's 5A medium (Gibco, catalog No. 16600082), fetal bovine serum (Gibco, catalog No. 10099141C), penicillin-streptomycin double antibody (Gibco, catalog No. 15140122), pancreatic enzyme (Gibco, catalog No. 25200056), CellTiter Glo assay kit (Promega, catalog No. G7572), 384-well transparent flat-bottomed black walled cell culture plate (Corning, catalog No. 3764), ultra micro sampler (Tecan, catalog No.D300e), Multimode reader (Biotek, catalog No. SynergyHTX)
(§4) 1. Cell culture: HCT116 and HCT116-MTAP-KO cells were cultured in McCoy'5A medium+10% fetal bovine serum+1% penicillin-streptomycin double antibody; to ensure that they were always in the logarithmic growth phase and the cell viability greater than 95%.
(§5) 2. Compound concentration gradient preparation: The compound to be tested was added to a 384-well plate using an ultra micro sampler, starting from 30 μM (HCT116 cells) or 3 μM (HCT116-MTAP-KO cells), and diluted with DMSO at 3 times for a total of 9 concentrations and set up three duplicate wells.
(§6) 3. Treatment of cells with compounds: Trypsin-digested HCT116 or HCT116-MTAP-KO cell suspension was added to the 384-well plates spotted with the compounds to be tested at 40 μL per well, i.e., 100 cells per well, and the final concentration of DMSO was 0.4%. The cell culture plate was incubated at 37° C. in a 5% CO2 incubator for 6 days.
(§7) 4. Detection: 20 μL of CellTiter Glo reagent was added to each well of the cell culture plate and incubated at room temperature for 30 minutes. A multimode reader was used to detect the luminescence signal at […].
(§8) The data was fitted with GraphPad Prism 8.0 software using a four parameter inhibitor-reaction model to obtain the IC50 value (half inhibitory concentration) of the test compounds.

[1] = system: HCT116-MTAP-KO cells (HCT116 MTAP null); assay: Proliferation inhibition of HCT116 MTAP-KO cells in vitro (CellTiter Glo); type: cell-based; conditions: 6 days, 9 concentrations starting from 3 μM, read-out: Cell proliferation inhibition rate HCT116 MTAP null IC50 (nm)
Source text: as §1, §2, §3, §4, §5, §6, §7, §8

Structure (SMILES) | IC50 (HCT116 MTAP WT cells; Homo sapiens, HCT-116, 144 h) | IC50 ([1]; HCT116-MTAP null, 144 h) | IC50 (HCT116 MTAP WT cells) | IC50 [1]
CCN(Cc1ccc(C(F)(F)F)cn1)C(=O)c1ccc2nc(N)c3c(C)nc(C)n3c2c1 [Example 15, 4-Amino-N-ethyl-1,3-dimethyl-N-((5-trifluoromethyl)pyridin-2-ylmethyl) imidazolo[1,5-a]quinoxalin-8-carboxamide] | 1000 to 10000 nM | 100 to 1000 nM | – | –
Cc1ncc2c(N)nc3cc(F)c(C(=O)N(Cc4cn5ccccc5n4)C4CCN(C)C4)cc3n12 (stereo not drawn) [Example 65] | 1000 to 10000 nM | 1000 to 10000 nM | – | –
COc1ccc(N(Cc2ccc(OC3CC3)cn2)C(=O)c2cc3c(cc2F)nc(N)c2cnc(C)n23)cn1 [Example 146] | 1000 to 10000 nM | < 100 nM | – | –
Cc1ncccc1N(Cc1ccc(C(F)(F)F)cn1)C(=O)c1cc2c(cc1F)nc(N)c1cnc(C)n12 [Example 143, 4-Amino-7-fluoro-1-methyl-N-(2-methylpyridin-3-yl)-N-(5-(trifluoromethyl)pyridin-2-ylmethyl)imidazolo[1,5-a]quinoxalin-8-carboxamide] | 100 to 1000 nM | < 100 nM | – | –
Cc1nn(C)cc1N(Cc1ccc(OC2CC2)cn1)C(=O)c1cc2c(cc1F)nc(N)c1cnc(C)n12 [Example 144] | 1000 to 10000 nM | < 100 nM | – | –
C[C@@H]1COC[C@H](c2cn3ccccc3n2)N1C(=O)c1ccc2nc(N)c3cnn(C)c3c2c1 [Example 416] | – | 100 to 1000 nM | – | –
Cc1ncc2c(N)nc3cc(F)c(C(=O)N(Cc4ccc(OCC(F)(F)F)cn4)c4cnn(C)c4)cc3n12 [Example 116] | 1000 to 10000 nM | 100 to 1000 nM | – | –
Cc1ncc2c(N)nc3cc(F)c(C(=O)N4C(C)COCC4c4ccc(C(F)(F)F)cn4)cc3n12 (stereo not drawn) [Example 273] | 1000 to 10000 nM | < 100 nM | – | –
CCN(Cc1ccc(C(F)(F)F)cn1)C(=O)c1cc2c(cc1F)nc(N)c1cnc(C)n12 [Example 18] | 1000 to 10000 nM | < 100 nM | – | –
CCOCCc1ccc(C2COCC(C)N2C(=O)c2cc3c(cc2F)nc(N)c2c(C)ncn23)nc1 (stereo not drawn) [Example 103] | 1000 to 10000 nM | < 100 nM | – | –
Cc1ncc2c(N)nc3cc(F)c(C(=O)N(Cc4ccc(C(F)(F)F)cn4)c4ncn(C)n4)cc3n12 [Example 115] | 1000 to 10000 nM | 100 to 1000 nM | – | –
Cc1cc(C)c(N(Cc2ccc(C(F)(F)F)cn2)C(=O)c2cc3c(cc2F)nc(N)c2cnc(C)n23)cn1 [Example 194] | 1000 to 10000 nM | < 100 nM | – | –
Cc1ncc2c(N)nc3cc(F)c(C(=O)N4[C@H](C)COC[C@@H]4c4cn5ccccc5n4)cc3n12 [Example 38] | 1000 to 10000 nM | 100 to 1000 nM | – | –
Cc1cccc(-c2csc(CN(CC(C)C)C(=O)c3ccc4nc(N)c5c(C)ncn5c4c3)n2)n1 [Example 312] | 1000 to 10000 nM | < 100 nM | – | –
CCN(Cc1nc(-c2cnn(C(F)(F)F)c2)cs1)C(=O)c1cc2c(cc1F)nc(N)c1cnc(C)n12 [Example 80] | 1000 to 10000 nM | 100 to 1000 nM | – | –
COc1ccc(C2COCC(C)N2C(=O)c2cc3c(cc2F)nc(N)c2cnc(C)n23)nn1 (stereo not drawn) [Example 271] | 1000 to 10000 nM | < 100 nM | – | –
Cc1ncc2c(N)nc3cc(F)c(C(=O)N(Cc4ccc(S(F)(F)(F)(F)F)cc4)c4ccnn4C)cc3n12 [Example 229] | 100 to 1000 nM | < 100 nM | – | –

Structure (SMILES) | IC50 (HCT116 MTAP WT cells; Homo sapiens, HCT-116, 144 h) | IC50 ([1]; HCT116-MTAP null, 144 h) | IC50 (HCT116 MTAP WT cells) | IC50 [1]
Cc1ncc2c(N)nc3cc(F)c(C(=O)N4C(C)COC[C@@H]4c4ncc(C(F)(F)F)cc4F)cc3n12 (stereo partly drawn) [Example 34] | 1000 to 10000 nM | < 100 nM | – | –
CCN(C(=O)c1cc2c(cc1F)nc(N)c1cnc(C)n12)C1COc2cc(-c3cnn(C(F)(F)F)c3)ccc21 (stereo not drawn) [Example 75] | 1000 to 10000 nM | 100 to 1000 nM | – | –
Cc1ncn2c1c(N)nc1cc(F)c(C(=O)N3[C@H](C)COC[C@@H]3c3ccc(C(F)(F)F)cn3)cc12 [Example 153] | 100 to 1000 nM | < 100 nM | – | –
Cc1ncn2c1c(N)nc1cc(F)c(C(=O)N3C(C)COCC3c3ccc(C(F)F)cn3)cc12 (stereo not drawn) [Example 101] | – | – | 100 to 1000 nM | < 100 nM
Cc1ncc2c(N)nc3cc(F)c(C(=O)N4CCC(c5ccc(C(F)(F)F)cn5)C4)cc3n12 (stereo not drawn) [Example 159] | 1000 to 10000 nM | 100 to 1000 nM | – | –
Cc1ncn2c1c(N)nc1ccc(C(=O)N(Cc3nc(N4CCOCC4)cs3)CC(C)C)cc12 [Example 301] | 1000 to 10000 nM | 100 to 1000 nM | – | –
Cc1ncc2c(N)nc3cnc(C(=O)N(Cc4ccc(C(F)(F)F)cn4)C(C)c4ncccn4)cc3n12 (stereo not drawn) [Example 16] | 1000 to 10000 nM | 100 to 1000 nM | – | –
Cc1ncc2c(N)nc3cc(F)c(C(=O)N(Cc4ccc(N5CC(F)(F)C5)cn4)c4ccnn4C)cc3n12 [Example 219] | 1000 to 10000 nM | < 100 nM | – | –
COc1ncccc1N(Cc1ccc(C(F)(F)F)cn1)C(=O)c1cc2c(cc1F)nc(N)c1cnc(C)n12 [Example 145] | 100 to 1000 nM | < 100 nM | – | –
CCn1cc(N(Cc2ccc(OC3CC3)cn2)C(=O)c2cc3c(cn2)nc(N)c2cnc(C)n23)c(C)n1 [Example 199] | 1000 to 10000 nM | < 100 nM | – | –
CCOc1ccc(CN(CC)C(=O)c2cc3c(cc2F)nc(N)c2c(C)ncn23)nn1 [Example 95] | – | – | 1000 to 10000 nM | 100 to 1000 nM
COc1ncc(N(Cc2ccc(C(F)(F)F)cn2)C(=O)c2cc3c(cc2F)nc(N)c2cnc(C)n23)cn1 [Example 148] | 1000 to 10000 nM | 100 to 1000 nM | – | –
Cc1ncn2c1c(N)nc1cc(F)c(C(=O)N3C(c4ccc(C#N)cn4)COC[C@H]3C)cc12 (stereo partly drawn) [Example 108] | 1000 to 10000 nM | < 100 nM | – | –
Cc1ncc2c(N)nc3cc(F)c(C(=O)N(Cc4cnn(CC(F)(F)F)c4)c4ccnn4C)cc3n12 [Example 319] | 1000 to 10000 nM | 100 to 1000 nM | – | –
COc1ccc(N(Cc2ccc(C(F)(F)F)cn2)C(=O)c2cc3c(cc2F)nc(N)c2cnc(C)n23)cn1 [Example 124] | 1000 to 10000 nM | < 100 nM | – | –
Cc1ncc2c(N)nc3cc(F)c(C(=O)N(Cc4ccc(OC5CC5)nn4)c4ccnn4C)cc3n12 [Example 215] | 1000 to 10000 nM | < 100 nM | – | –

The next lines start with the values.

IC50 (HCT116 MTAP WT cells; Homo sapiens, HCT-116, 144 h) | IC50 ([1]; HCT116-MTAP null, 144 h) | IC50 (HCT116 MTAP WT cells) | IC50 [1] | Structure (SMILES)
< 100 nM | < 100 nM | – | – | CCc1nn(C)cc1N(Cc1ccc(C(F)(F)F)cn1)C(=O)c1cc2c(cc1F)nc(N)c1c(C)ncn12 [Example 184]
< 100 nM | < 100 nM | – | – | Cc1nn(C)cc1N(Cc1ccc(C(F)(F)F)cn1)C(=O)c1cc2c(cc1F)nc(N)c1c(C)ncn12 [Example 134]
1000 to 10000 nM | 100 to 1000 nM | – | – | Cc1ncc2c(N)nc3cc(F)c(C(=O)N(Cc4cn5ccc(C(F)(F)F)cc5n4)c4cnn(C)c4)cc3n12 [Example 70]
1000 to 10000 nM | < 100 nM | – | – | Cc1nn(C(C)C)cc1N(Cc1ccc(C(F)(F)F)cn1)C(=O)c1cc2c(cc1F)nc(N)c1cnc(C)n12 [Example 176]
1000 to 10000 nM | < 100 nM | – | – | Cc1nn(C)cc1N(Cc1ccc(C(F)(F)F)nc1)C(=O)c1cc2c(cc1F)nc(N)c1cnc(C)n12 [Example 182]
< 100 nM | < 100 nM | – | – | Cc1nn(C)cc1N(Cc1ccc(OC(F)(F)F)cn1)C(=O)c1cc2c(cc1F)nc(N)c1c(C)ncn12 [Example 170]
100 to 1000 nM | < 100 nM | – | – | CCn1cc(N(Cc2ccc(C(F)(F)F)cn2)C(=O)c2cc3c(cc2F)nc(N)c2c(C)ncn23)c(C)n1 [Example 150]
1000 to 10000 nM | < 100 nM | – | – | Cc1nn(C)cc1N(Cc1ccc(OC(F)(F)F)cn1)C(=O)c1cc2c(cc1F)nc(N)c1cnc(C)n12 [Example 157]
1000 to 10000 nM | 100 to 1000 nM | – | – | Cc1ncc2c(N)nc3cc(F)c(C(=O)N(Cc4ccc(C(F)(F)F)cn4)c4cn(C)nc4CO)cc3n12 [Example 133]
1000 to 10000 nM | < 100 nM | – | – | COc1ccc(CN(C(=O)c2cc3c(cc2F)nc(N)c2cnc(C)n23)c2cn(C)nc2C)nn1 [Example 131]
1000 to 10000 nM | < 100 nM | – | – | Cc1ncc2c(N)nc3cc(F)c(C(=O)N(Cc4ccc(C(F)(F)F)cn4)c4cnn(C)c4)cc3n12 [Example 90]
100 to 1000 nM | < 100 nM | – | – | Cc1ncc2c(N)nc3cc(F)c(C(=O)N(Cc4ccc(C(F)(F)F)cn4)c4c(F)cnn4C)cc3n12 [Example 201]
100 to 1000 nM | < 100 nM | – | – | Cc1nn(C)cc1N(Cc1ccc(C(F)(F)F)nn1)C(=O)c1cc2c(cc1F)nc(N)c1c(C)ncn12 [Example 193]
1000 to 10000 nM | – | – | – | Cc1nn(C)cc1N(Cc1cn2cc(C(F)(F)F)ccc2n1)C(=O)c1cc2c(cc1F)nc(N)c1cnn(C)c12 [Example 204]
1000 to 10000 nM | – | – | – | Cn1nccc1N(Cc1cn2cc(C(F)(F)F)ccc2n1)C(=O)c1cc2c(cc1F)nc(N)c1cnn(C)c12 [Example 218]
